Experimental data from patent US8304426B2, “Polymorphic form of Granisetron base, methods for obtaining it and formulation containing it” (Inke, S.A., priority 2007, dated 2012).

Assay: Stability of the polymorphic form: XRPD, IR and DSC characterization repeated one year later
Assay type: physicochemical
Conditions: solid from Example 11 (crystallised from 2-propanol)
Experimental: A PHILIPS X′ Pert diffractometer provided with a Cu tube and a secondary monochromator made of graphite (wavelength Kα Cu, 1.5419 Å) was used to record the X-ray powder diffractograms. Reception slot: 0.1 mm; Soller: 0.04 rad; antidiffusion slot and divergence slot: 1°.
2.61 g of Granisetron base is dissolved in 7.0 ml of 2-propanol, and is taken to reflux, when all the product is dissolved, the resultant dissolution is allowed to cool to 15° C. and the resultant solid is filtered and washed with 2-propanol. 2.47 g of Granisetron base is recovered (95%). Said Granisetron base is characterized as Form I with the following data of XRPD, IR and DSC: […]

In the case of `CN1C2CCCC1CC(NC(=O)c1nn(C)c3ccccc13)C2` (stereo not drawn) [Form I of Granisetron base, endo-1-methyl-N-(9-methyl-9-azabicycle[3.3.1]non-3-yl)-1H-indazole-3-carboxamide], the “Stability of polymorphic form (XRPD, IR and DSC characterization repeated, same result obtained)” value is reported as “stable”.
